Measurements published in publication PMC7412250, “Novel Chrysin-De-Allyl PAC-1 Hybrid Analogues as Anticancer Compounds: Design, Synthesis, and Biological Evaluation” (Molecules, 2020).
Like-named read-outs stand apart in the source and are kept apart here.

How the values were obtained:
[1] = tested on: U-251; test: MTT cytotoxicity assay, U-251; assay type: cell-based; conditions: Homo sapiens, mean ± SEM of three independent experiments in triplicate, read-out: IC50 Brain Cancer U-251
Procedure: (§1) A panel of cancer cell lines, including breast (MDA-MB-231, BT20), brain (U251), and colon (HCT116), as well as a normal cell line (human mammary epithelial cells: HMECs), were grown as adherent monolayers in flasks with Dulbecco’s Modified Eagle Medium (DMEM), supplemented with 10% fetal bovine serum (FBS) and 1% penicillin and streptomycin in a humidified incubator with 5% CO2 at 37 °C.
(§2) The (3-(4,5-dimethylthiazol-2-yl)-2,5-diphenyltetrazolium bromide) (MTT) assay was used to determine the cytotoxicity of the 15 chrysin derivatives in the above-mentioned cell lines. Briefly, cells were harvested with 0.05% trypsin, 2.21 mM ethylenediaminetetraacetic acid (EDTA), 1× from Corning (Corning, NY, USA), and suspended at a final density of 5 × 10^3 cells/well. Cells were seeded (180 μL/well) into 96-well plates. Initially, four different concentrations of each compound were added to find the compounds with the greatest antiproliferative efficacy in the MDA-MB-231 cell line (0, 1, 10, and 100 μM). Subsequently, […] different concentrations […] of each compound were added to the remaining cell lines mentioned above. After 68 h of incubation, 20 μL of the MTT solution (4 mg/mL) were added to each well, and the plates were incubated for 4 h. This allowed viable cells to biotransform the yellow-colored MTT into dark-blue formazan crystals. Subsequently, the medium was discarded, and 150 μL of DMSO were added to each well to dissolve the formazan crystals. The absorbance was determined at 590 nm using a DTX 880 multimode detector (Beckman Coulter life sciences, IN, USA). The IC50 ± SD concentrations were calculated from three experiments performed in triplicate/duplicate. The IC50 values were calculated from the cell survival percentages obtained for each compound tested at different concentrations. Similarly, the cytotoxicity of the test compounds was compared to the normal cell line (HMEC).

[2] = tested on: HCT116; test: MTT cytotoxicity assay, HCT116; assay type: cell-based; conditions: Homo sapiens, HCT-116, mean ± SEM of three independent experiments in triplicate, read-out: IC50 Colon Cancer HCT116
Procedure: as §1, §2

[3] = tested on: MDA-MB-231 cells; test: MTT cytotoxicity assay, MDA-MB-231; assay type: cell-based, human; conditions: MDA-MB-231, MTT; for IC50: Homo sapiens, mean ± SD of two independent experiments in triplicate, read-out: IC50 (cell survival)
Procedure: The synthesized chrysin derivatives were evaluated for cytotoxic efficacy in the human breast cancer cell line, MDA-MB-231, using the 3-(4,5-dimethylthiazol-2yl)-2,5-diphenyltetrazolium bromide (MTT) colorimetric assay and doxorubicin was used as a reference anticancer drug.
as §1
as §2, with “The IC50 ± SD concentrations were calculated from three experiments performed in triplicate/duplicate.” left out

[4] = tested on: HMEC (human mammary epithelial cells); test: MTT cytotoxicity assay, normal cells HMEC; assay type: cell-based; conditions: mean ± SEM of three independent experiments in triplicate
Procedure: as §1, §2

[5] = tested on: BT-20; test: MTT cytotoxicity assay, BT-20; assay type: cell-based; conditions: Homo sapiens, mean ± SEM of three independent experiments in triplicate, read-out: IC50 Breast Cancer BT-20
Procedure: as §1, §2

[6] = tested on: MDA-MB-231 cells; design: method as in PMID 30774307; conditions: cited from earlier work; for IC50: MDA-MB-231, MTT, data taken from ref 29, read-out: IC50 (cell survival)

| SMILES | IC50 [3] | cytotoxic efficacy (in words) [3] | further results |
| --- | --- | --- | --- |
| O=C(COc1cc(O)c2c(=O)cc(-c3ccccc3)oc2c1)N/N=C/c1ccccc1O [Compound 4a, (E,Z)-2-((5-Hydroxy-4-oxo-2-phenyl-4H-chromen-7-yl)oxy)-N’-(2-hydroxybenzylidene)acetohydrazide] | 6.8 ± 2.76 µM |  | IC50 [1]: 8.63 ± 4.86 µM; IC50 [2]: 2.88 ± 0.09 µM; IC50 [4]: 7.12 ± 4.55 µM; IC50 [5]: 4.41 ± 0.99 µM |
| O=C(COc1cc(O)c2c(=O)cc(-c3ccccc3)oc2c1)N/N=C/c1ccccc1 [Compound 4b, (E,Z)-N’-Benzylidene-2-((5-hydroxy-4-oxo-2-phenyl-4H-chromen-7-yl)oxy)acetohydrazide] | 9.4 ± 3.38 µM |  |  |
| COc1ccccc1/C=N/NC(=O)COc1cc(O)c2c(=O)cc(-c3ccccc3)oc2c1 [Compound 4c, (E,Z)-2-((5-Hydroxy-4-oxo-2-phenyl-4H-chromen-7-yl)oxy)-N’-(2-methoxybenzylidene)acetohydrazide] | 23.3 ± 6.98 µM |  |  |
| O=C(COc1cc(O)c2c(=O)cc(-c3ccccc3)oc2c1)N/N=C/c1ccc(O)cc1 [Compound 4e, (E,Z)-2-((5-Hydroxy-4-oxo-2-phenyl-4H-chromen-7-yl)oxy)-N’-(4-hydroxybenzylidene)acetohydrazide] |  |  | IC50 [6]: 54.8 ± 5.7 µM |
| COc1ccc(/C=N/NC(=O)COc2cc(O)c3c(=O)cc(-c4ccccc4)oc3c2)cc1 [Compound 4f, (E,Z)-2-((5-Hydroxy-4-oxo-2-phenyl-4H-chromen-7-yl)oxy)-N’-(4-methoxybenzylidene)acetohydrazide] |  |  | IC50 [6]: 11.9 ± 3.5 µM; times more efficacious than 4e ([6]; MDA-MB-231 cytotoxic efficacy relative to 4e): ~ 5 times |
| O=C(COc1cc(O)c2c(=O)cc(-c3ccccc3)oc2c1)N/N=C/c1c(O)cc(O)cc1O [Compound 4j, (E,Z)-2-((5-Hydroxy-4-oxo-2-phenyl-4H-chromen-7-yl)oxy)-N’-(2,4,6-trihydroxybenzylidene)acetohydrazide] |  | totally inactive |  |
| O=C(COc1cc(O)c2c(=O)cc(-c3ccccc3)oc2c1)N/N=C/c1ccco1 [Compound 4k, (E,Z)-N’-(Furan-2-ylmethylene)-2-((5-hydroxy-4-oxo-2-phenyl-4H-chromen-7-yl)oxy)acetohydrazide] | 66.7 ± 11.1 µM | did not have significant cytotoxic efficacy |  |
| O=C(COc1cc(O)c2c(=O)cc(-c3ccccc3)oc2c1)N/N=C/c1cccnc1 [Compound 4l, (E,Z)-2-((5-Hydroxy-4-oxo-2-phenyl-4H-chromen-7-yl)oxy)-N’-(pyridin-3-ylmethylene)acetohydrazide] |  | did not have significant cytotoxic efficacy |  |
| O=C(COc1cc(O)c2c(=O)cc(-c3ccccc3)oc2c1)N/N=C/c1ccccn1 [Compound 4m, (E,Z)-2-((5-Hydroxy-4-oxo-2-phenyl-4H-chromen-7-yl)oxy)-N’-(pyridin-2-ylmethylene)acetohydrazide] |  | did not have significant cytotoxic efficacy |  |
| O=C(COc1cc(O)c2c(=O)cc(-c3ccccc3)oc2c1)N/N=C/c1c(O)ccc2ccccc12 [Compound 4n, (E,Z)-2-((5-Hydroxy-4-oxo-2-phenyl-4H-chromen-7-yl)oxy)-N’-((2-hydroxynaphthalen-1-yl)methylene)acetohydrazide] |  | inactive |  |
| O=C(COc1cc(O)c2c(=O)cc(-c3ccccc3)oc2c1)N/N=C/c1cc([N+](=O)[O-])ccc1O [Compound 4o] | 7.9 ± 1.82 µM |  | IC50 [1]: 11.3 ± 2.84 µM; IC50 [2]: 3.85 ± 0.34 µM; IC50 [4]: 7.17 ± 4.1 µM; IC50 [5]: 7.25 ± 1.82 µM |
| COc1cccc2c1C(=O)c1c(O)c3c(c(O)c1C2=O)C[C@@](O)(C(=O)CO)C[C@@H]3O[C@H]1C[C@H](N)[C@H](O)[C@H](C)O1 [Doxorubicin, reference compound] | 0.2 ± 0.1 µM |  |  |
